Experiment [1] relates to ART (antigen-responding T-cell). The experiment is described as follows: In vitro ART (antigen-responding T-cell) proliferation test. The experiment is classed as cell-based, Lewis rat. The settings on record: Rattus norvegicus, T-cell, read-out: % Inhibition of ART growth.
Experiment [2] concerns Mouse phenylquinone writhing. The experiment is described as follows: Mouse phenylquinone writhing inhibitory activity. The settings on record: Mus musculus, po, 20 min, 50 mg/kg, orally; read-out: Inhibitory percentage (phenylquinone writhing). The class given is in vivo, mouse (Slc: ICR). A digest of the protocol:
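Male ICR mice (4 weeks, 17–24 g) dosed orally with compound suspended in 5% gum arabic. After 30 min, 0.02% phenylquinone (0.1 ml/10 g) given i.p.; writhing and stretching responses counted over 20 min.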

Experiment [3] deals with brewer's yeast induced pyrexia. Nature of the experiment: Antipyretic activity (brewer's yeast induced pyrexia). The experiment is classed as in vivo, rat (DS line). Conditions: orally; for Antipyretic activity, .increment. °C.: at peak time. A digest of the protocol:
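Male DS rats (7 weeks, 200-240 g) made febrile by s.c. 15% brewer's yeast 18 h before dosing; only animals at ≥38.5° C used. Compound given orally versus solvent control, with rectal temperature taken by thermistor hourly for 5 h post-dose.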

The subject of experiment [4] is Rat reversed passive Arthus reaction (skin). Nature of the experiment: Rat reversed passive Arthus reaction (skin) inhibitory activity. The experiment is classed as in vivo, rat (Jcl: SD). The settings on record: po, orally, read-out: Inhibitory percentage (reversed passive Arthus reaction). How it is done: Rat Reversed Passive Arthus Reaction (skin) Inhibitory Activity This reaction was-induced by using domestic rabbit anti-egg albumin (EA) antiserum according to the method of Chang and Otterness [Chang, Y. -H. and Otterness, I. G.: Eur. J. Pharmacol. 69, 155 (1981)]. Using six Jcl: SD male rats (7 weeks old, weight about 250 g) per one group, the hair was removed from the back under ether anesthesia, 1 ml of 0.5% EA physiological saline was injected […] into the tail vein, and further each 0.1 ml of diluted antiserum (6 mg protein antibody/ml) was injected in the back on both dexter and sinister sides. […] Acceleration of permeability through the vessel by the reaction was measured by injecting 1 ml of 1% Evans blue physiological saline intravenously at three hours after the induction of the reaction. Then, after 30 minutes, the rat was sacrificed by exsanguination. The skin was peeled off and the area of pigment spot (length×breadth, mm^2) was measured.

The next experiment concerns the target T1, cyclooxygenase (Rattus norvegicus, UniProt Q63921).
T1 construct: from tissue; host or cells: platelets in platelet-rich plasma from rat abdominal aorta blood (Jcl:wistar, male)
T1 sequence (Q63921 27-602): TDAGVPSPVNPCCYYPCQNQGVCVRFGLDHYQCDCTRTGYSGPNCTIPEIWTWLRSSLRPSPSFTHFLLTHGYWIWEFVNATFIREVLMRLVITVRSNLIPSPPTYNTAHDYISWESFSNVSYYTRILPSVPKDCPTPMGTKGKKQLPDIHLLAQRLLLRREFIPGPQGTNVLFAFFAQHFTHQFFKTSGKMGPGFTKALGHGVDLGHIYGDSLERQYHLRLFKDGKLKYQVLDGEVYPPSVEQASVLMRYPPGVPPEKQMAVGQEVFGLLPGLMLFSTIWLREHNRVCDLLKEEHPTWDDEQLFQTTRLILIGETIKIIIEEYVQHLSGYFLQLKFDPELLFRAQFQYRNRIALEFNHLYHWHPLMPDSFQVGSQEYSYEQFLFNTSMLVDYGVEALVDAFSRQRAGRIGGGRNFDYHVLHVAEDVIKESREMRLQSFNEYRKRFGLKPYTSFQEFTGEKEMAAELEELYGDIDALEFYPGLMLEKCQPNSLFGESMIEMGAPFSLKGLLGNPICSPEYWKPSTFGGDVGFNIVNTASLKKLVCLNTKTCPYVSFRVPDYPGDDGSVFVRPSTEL
Nature of the experiment: Cyclooxygenase inhibitory activity (HHT formation from arachidonic acid in rat platelet-rich plasma). The experiment is classed as cell-based, rat (Jcl:wistar).

Experiment [5] relates to Rat carrageenin pedal edema. Nature of the experiment: Rat carrageenin pedal edema inhibitory activity. The experiment is classed as in vivo, rat (Jcl: SD). The settings on record: Rattus norvegicus, po, 3 h, orally, 3 hours after carrageenin, read-out: Inhibitory percentage (carrageenin pedal edema). A digest of the protocol: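 Male Jcl:SD rats (6 weeks, 160-220 g) received test compound orally as a 5% gum arabic suspension, topped up with water to 5 ml/rat. One hour later 0.05 ml of 1% carrageenin was injected subcutaneously into the right hind foot pad. Edema volume was the foot volume increase 3 hours post-injection.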
(In general: In the carrageenan paw model, swelling and tenderness develop within hours.)

Experiment [6] concerns Mouse acetic acid writhing. The experiment is described as follows: Mouse acetic acid writhing inhibitory activity. The experiment is classed as in vivo, mouse (Slc: ICR). Conditions: Mus musculus, po, 20 min, orally, read-out: Inhibitory percentage (acetic acid writhing). How it is done: Mouse Acetic Acid Writhing Inhibitory Activity
Ten male Slc: ICR mice, 4 weeks old, per 1 group were used. A test compound was administered orally, and after 30 minutes, 0.1 ml/10 g body weight of physiological saline containing 0.6% acetic acid was injected intraperitoneally. For 20 minutes, writhing (in agony condition) response by administration of acetic acid was counted regarding individual animals. The inhibitory percentage relative to the mean response counts of a control group was calculated regarding respective animals in a test compound administration group. The test compound was suspended in 5% gum arabic solution, and the administration volume was 0.2 ml/10 g.

In experiment [7] the test system is brewer's yeast inflamed rat hind limb foot pad pain threshold. The experiment is described as follows: Pain relief test by Randall Celit method. The class given is in vivo. The settings on record: orally. On the procedure:
Pain Relief Test By Randall Celit Method
Seven to eight male Jcl: […] rats, 5 weeks old, per one group were used. 0.1 ml of 10% brewer's yeast physiological saline suspension was injected subcutaneously in the rat dexter hind limb foot pad to induce inflammation. After three hours, the pain threshold was measured by pressure stimulating pain relief measuring apparatus manufactured by Ugo Basile Company (Cat. No. 7200) using an index of […] pain reflex in the inflammatory limb (dexter hind limb), and this was taken as response threshold value in the inflammatory limb. A test compound was administered after additional 45 minutes orally, and the threshold was measured after one and two hours. The efficacy was determined by comparing threshold of a control group and that of the test compound group. The test compound was suspended in 5% gum arabic solution and the administration volume was 0.5 ml/100 g.

A further experiment deals with ICAM-1. Nature of the experiment: Adhesion protein expression inhibitory activity, ICAM-1. The experiment is classed as cell-based. Conditions: 30 μM, human umbilical vascular endothelial cells, TNF-α; 360 min. On the procedure: Adhesion Protein Expression Inhibitory Activity The various concentrations of test compounds were added to the human umbilical cord-derived vascular endothelial cells [sold by Klabo] which were seeded in the gelatin coat plate and the mixture was incubated at 37° C. for 15 minutes. Then, the human tumor necrosis factor-α[TNF-α; sold by Genzyme] was added therein to the final concentration of 1 ng/ml and incubation was carried out at 37° C. for 3 hours for expression of ELAM-1 and for 6 hours for that of ICAM-I. After the reaction, the cells were fixed using glutaraldhyde and the expression amount of ELAM-1 and ICAM-1 was measured by the cell-ELISA method. That is, the expression was determined by […] the adhesion proteins on the cells in the system using anti-ELAM-1 antibody BBA-2 and anti-ICAM-1 antibody BBA4 as the first antibody as well as horseradish peroxidase-labeled rabbit anti-mouse IgG antibody as the second antibody.

Experiment [8] has as its system PAF induced respiratory tract constriction. The experiment is described as follows: PAF induced respiratory tract constriction inhibitory activity. The experiment is classed as in vivo, guinea pig (Hartley). The settings on record: intravenously. An excerpt: PAF Induced Respiratory Tract Constriction Inhibitory Activity Male and female Hartley guinea pigs, weighing about 100 g, were used. The guinea pigs were fixed at a dorsal position under urethane anethesia (1.5 g/kg, i.p.). One leg of a cannula (having four legs) was inserted in the trachea and two of the other three legs were bound to the respirator (Harvard apparatus rodent respirator). The remaining one leg (side branch) was bound to the bronchospasm transducer 7.020 (Ugobasile). Under the conditions of 5 to 7 ml of air supply/time, 70 times/min. of supply time and 10 cm H2 O of pulmonary pressure load, the amount of over flow air was recorded on a Rectigraph (Rectigraph-8S, Saneissoki) via the transducer. After Gallamine […] treatment (1 mg/kg, i.v.), PAF was administered intravenously (1.0 μg/kg) and the maximum respiratory tract constriction response was observed after 30 seconds. Under these conditions, the inhibitory activity of the test compounds were examined.

Molecules are shown by their SMILES. Structures can show the parent of a compound that is named as a salt.

The inhibition is the change of the read-out against control, counted positive when it falls. As to `CC(C)(C)C(=O)NCCCSc1ccncc1.Cl` [Example 24, 4-[3-(pivaloylamino)propylthio]pyridine hydrochloride], in experiment [1], the inhibition at 1 µM came out at 29% and the inhibition at 10 µM came to 35%. The inhibition in vivo at 50 mg/kg in experiment [2] was 56%. Further, in [3] (50 mg/kg), the “Antipyretic activity, peak time” value worked out at 2 h and the “Antipyretic activity, .increment. °C.” value is -1.33 °C. Moreover, the inhibition in vivo at 50 mg/kg in [4] turned out to be 46%.
The IC50 is the point on the concentration scale where inhibition reaches its midpoint. The molecule `O=C(NCCCSc1ccncc1)C(F)(F)F` [Example 25, 4-[3-(trifluoroacetylamino)propylthio]pyridine hydrochloride] returned an IC50 on cyclooxygenase of 3.4 µM. Further, the inhibition at 1 µM in [1] was determined as 44%. The inhibition at 10 µM in [1] was -7%. Moreover, the inhibition in vivo at 50 mg/kg turned out to be 60% in experiment [2] and 24% in experiment [4].
For the molecule `CC(C)(C)c1ccc(C(=O)NCCCSc2ccncc2)cc1` [Example 32, 4-[3-(4-t-butylbenzoylamino)propylthio]pyridine hydrochloride], the IC50 against cyclooxygenase was 6.5 µM. Moreover, in experiment [1], the inhibition at 1 µM stood at 43% and the inhibition at 10 µM was 37%. The inhibition in vivo at 50 mg/kg in [2] turned out to be 63%. Moreover, in experiment [3] (50 mg/kg), the “Antipyretic activity, peak time” value worked out at 1 h and the “Antipyretic activity, .increment. °C.” value is -1.39 °C. Also, the inhibition in vivo at 50 mg/kg in experiment [4] is 41%.
Consider `CCCCOc1ccc(C(=O)NCCCSc2ccncc2)cc1` [Example 35, 4-[3-(4-n-butoxybenzoylamino)propylthio]pyridine hydrochloride], for which the half-maximal inhibitory concentration (IC50) on cyclooxygenase stood at 2.3 µM. Also, in [1], the inhibition at 1 µM is 18%. Also, the inhibition at 10 µM in experiment [1] was found to be 33%. Also, the inhibition in vivo at 50 mg/kg in experiment [2] is 60%; in experiment [4] it was 30%.
`O=C(NCCCSc1ccncc1)c1cccnc1` [Example 41, 4-[3-(nicotinoylamino)propylthio]pyridine]: on cyclooxygenase, the half-inhibitory concentration (IC50) was 11.3 µM. Moreover, the values for the inhibition in vivo at 50 mg/kg in experiment [2] and in experiment [4] were 73% and 35%, respectively.
In turn, `O=C(NCCCSc1ccncc1)c1ccco1` [Example 53, 4-[3-(2-furoylamino)propylthio]pyridine] gave a 50% inhibitory concentration (IC50) on cyclooxygenase of 8.6 µM. Moreover, in [4], the inhibition in vivo at 50 mg/kg came to 21%.
On to `O=C1c2ccccc2C(=O)N1CSc1ccncc1` [Example 62, 4-(phthalimidomethylthio)pyridine], for which the inhibition in vivo at 12.5 mg/kg in [5] (12.5 mg/kg) stood at 20%. Besides, the inhibition in vivo at 50 mg/kg in experiment [5] amounted to 36%; in experiment [2], 55%; in experiment [4] it was 27%. The “Antipyretic activity, peak time” value in experiment [3] (50 mg/kg) amounted to 4 h. In addition, in experiment [3] (50 mg/kg), the “Antipyretic activity, .increment. °C.” value was -1.40 °C.
`O=C1CSC(=O)N1CSc1ccncc1` [Example 169, 4-(2,4-thiazolidinedionemethylthio)pyridine]: the figures for the inhibition in vivo at 50 mg/kg in experiment [5] and in experiment [6] were 44% and 96%, respectively. For the same molecule, the “% Of Control (pain threshold)” value in experiment [7] (50 mg/kg, 1 hour) worked out at 215.2 ± 16.1 % Of Control; in [7] (50 mg/kg, 2 hours), 158.4 ± 26.2 % Of Control; in experiment [7] (200 mg/kg, 1 hour), 242 ± 21.9 % Of Control; in experiment [7] (200 mg/kg, 2 hours), 326.1 ± 80.1 % Of Control. Also, the “Antipyretic activity, peak time” value in [3] (12.5 mg/kg) and in [3] (50 mg/kg) was 2 h each time. Also, the results for the “Antipyretic activity, .increment. °C.” value in experiment [3] (12.5 mg/kg) and in experiment [3] (50 mg/kg) were -2.13 °C and -2.43 °C, respectively.
As for `CC1(C)OC(=O)N(CSc2ccncc2)C1=O` [Example 173, 4-(5,5-dimethyloxazolidine-2,4-dione)methylthiopyridine], the inhibition in vivo at 50 mg/kg in experiment [5] was 23%; in [6] it was 75%. For the same molecule, the “% Of Control (pain threshold)” value turned out to be 222.7 ± 26.4 % Of Control in experiment [7] (200 mg/kg, 1 hour) and 165.8 ± 24.9 % Of Control in experiment [7] (200 mg/kg, 2 hours). For the same molecule, the “Antipyretic activity, peak time” value in [3] (50 mg/kg) is reported as 2 h. Also, in experiment [3] (50 mg/kg), the “Antipyretic activity, .increment. °C.” value was -2.02 °C. Also, the “Expression Inhibitory Potency, ICAM-1” value in the experiment on ICAM-1 is reported as 35%.
As to `Cl.Cl.O=c1c2ccccc2n(CSc2ccncc2)c(=O)n1CCCCSc1ccncc1` [Example 199, 1-(4-pyridylthio)methyl-3-[4-(4-pyridylthio)butyl]quinazoline-2,4(1H,3H)-dione dihydrochloride], in experiment [8] (3 mg/kg), the “Inhibitory activity (PAF induced respiratory tract constriction)” value came to 53.5%.
`CCC(=O)N(CCCCSc1ccncc1)c1ccccc1N(CCCCSc1ccncc1)C(=O)CC.Cl.Cl` [Example 203, 1,2-bis[N-[4-(4-pyridylthio)butyl]-N-propionylamino]benzene dihydrochloride]: in experiment [8] (0.3 mg/kg), the “Inhibitory activity (PAF induced respiratory tract constriction)” value turned out to be 90.4%.

The values above are taken from US5457106A, “Pyridine derivatives, their production and use” (Takeda Chemical Industries, Ltd., priority 1991, dated 1995).
